This is an account of results in patent publication US20110098309A1, “METHODS OF INHIBITING THE FORMATION OF AMYLOID-BETA DIFFUSABLE LIGANDS USING ACYLHYDRAZIDE COMPOUNDS” (priority 2007, published 2011).

As usually defined, the IC50 is the concentration needed to halve the response being measured. Low values mean inhibition by little substance, high ones a need for much substance.

Sequence of Aβ1-42 (P05067 672-713 limits assumed): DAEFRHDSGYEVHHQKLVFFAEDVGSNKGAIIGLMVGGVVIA

The target of this experiment is Aβ1-42 (Homo sapiens, UniProt P05067). As to the kind of experiment: FRET assay of Aβ1-42 oligomer (ADDL) assembly inhibition. The experiment is classed as biochemical. Particulars: 0.2 μM FITC-Aβ(1-42) and 0.8 μM Aβ(1-42), 37° C., six concentrations from about 10 μM to about 0.03 μM. The text has this:
Fluorescence (or Förster) Resonance Energy Transfer (FRET) is a distance-dependent, non-radiative transfer of energy in which the de-excitation of one fluorophore (donor) is coupled to excitation of another fluorophore (acceptor). FRET occurs if (1) the quantum of energy emitted by a donor fluorophore corresponds to an acceptor fluorophore's excitation energy, (2) the orientations of donor and acceptor transition dipoles are nearly parallel and (3) the donor fluorescent emission spectrum overlaps the acceptor absorption spectrum.
In this assay, assembly of Aβ1-42 oligomer formation is monitored by FRET using N-terminal conjugates of fluorescein-Aβ1-42 as both the donor and acceptor fluorophore (fluorescein-fluorescein Ro˜45 Å). […] Inhibition of Aβ1-42 assembly is observed as the absence or attenuation of fluorescein quenching.
FRET and FP assays are performed in 384-well Corning Non-Binding Surface, black, opaque microtiter plates, and the assay buffer consists of 25 mM MOPS-Tris (pH 8.0) with 100 mM MgCl2. The assay volume, containing 0.2 μM FITC-Aβ(1-42) and 0.8 μM Aβ(1-42), is 50 μl and the temperature is 37° C. […] Kinetic traces are collected by recording fluorescence intensity and polarization readings every five minutes over about a three hour time course. […] Positive control reactions contain all buffer components in the absence of added small molecule or antibody reagents. To test for ADDL assembly inhibition, the compound was incubated with the peptide mixture at six concentrations from about 10 μM decreasing to about 0.03 μM.
`COc1ccc(O)c(/C=N/NC(=O)c2cc(Cl)ccc2O)c1` [Compound 84, 5-chloro-2-hydroxy-N′-(2-hydroxy-5-methoxy-benzylidene)benzohydrazide] had a 50% inhibitory concentration (IC50) of 15.5 µM. Then `Cc1ccc(C(=O)N/N=C/c2cccc(C)c2O)cn1` [Compound 53, N′-(2-hydroxy-3-methyl-benzylidene)-6-methylnicotino-hydrazide], with 4.6 µM. To `C=CCc1cccc(/C=N/NC(=O)c2ccc(I)cc2)c1O` [Compound 60, N′-(3-allyl-2-hydroxy-benzylidene)-4-iodo-benzohydrazide] belongs 6.5 µM; to `O=C(C/C(=N/NC(=O)c1cccc2cc[nH]c12)C(F)(F)F)c1cccs1` [Compound 22, N′-(1,1,1-trifluoro-4-oxo-4-(thiophen-2-yl)butan-2-ylidene)-1H-indole-7-carbohydrazide], 13.5 µM.

For `O=C(N/N=C/c1c(O)ccc2ccccc12)c1cc(C2CC2)n[nH]1` [Compound 103, 3-cyclopropyl-N′-((2-hydroxynaphthalen-1-yl)methylene)-1H-pyrazole-5-carbohydrazide], it took 34.5 µM to reach half-maximal inhibition (IC50). Molecule `O=C(N/N=C/c1cc(F)cc(Cl)c1O)c1ccccc1O` [Compound 40, N′-(3-chloro-5-fluoro-2-hydroxybenzylidene)-2-hydroxy-benzohydrazide] registered an IC50 of 2.1 µM. Then `Cc1ccc(/C=N/NC(=O)c2ccc3c(c2)OCO3)c(O)c1` [Compound 116, N′-(2-hydroxy-4-methylbenzylidene)benzo[d][1,3]dioxole-5-carbohydrazide], with 50 µM; and `O=C(N/N=C/c1cc(Br)cc(I)c1O)c1cccc(F)c1` [Compound 39, N′-(5-bromo-2-hydroxy-3-iodobenzylidene)-3-fluoro-benzohydrazide], with 1.6 µM; and `O=C(N/N=C/c1cc([N+](=O)[O-])ccc1O)c1ccccc1O` [Compound 99, 2-hydroxy-N′-(2-hydroxy-5-nitrobenzylidene)benzohydrazide], with 32.5 µM.

In turn, `Nc1ccc(Cl)cc1/C=N/NC(=O)c1ccccc1N` [Compound 93, 2-amino-N′-(2-amino-5-chlorobenzylidene)benzohydrazide] came in with an IC50 of 23.9 µM. Then `COc1ccc(O)c(/C=N/NC(=O)c2ccccc2NS(C)(=O)=O)c1` [Compound 100, N-(2-(2-(2-hydroxy-5-methoxybenzylidene)hydrazinecarbonyl)phenyl)methanesulfonamide], with 33.2 µM; and `CCOc1cccc(/C=N/NC(=O)c2ccccc2O)c1O` [Compound 106, N′-(3-ethoxy-2-hydroxybenzylidene)-2-hydroxybenzohydrazide], with 39.2 µM; and `O=C(C/C(=N/NC(=O)c1sc2cc(F)ccc2c1Cl)C(F)(F)F)c1cc2ccccc2s1` [Compound 17, N′-(4-(benzo[b]thiophen-2-yl)-1,1,1-trifluoro-4-oxobutan-2-ylidene)-3-chloro-6-fluorobenzo[b] thiophene-2-carbohydrazide], with 10.2 µM. To `CC(C)(C)c1ccc(O)c(/C=N/NC(=O)c2ccccc2O)c1` [Compound 47, N′-(5-tert-butyl-2-hydroxybenzylidene)-2-hydroxy-benzohydrazide] belongs 3.5 µM.

The molecule `COc1cc(Br)c(O)c(/C=N/NC(=O)c2ccccc2O)c1` [Compound 109, N′-(3-bromo-2-hydroxy-5-methoxybenzylidene)-2-hydroxybenzohydrazide] displayed a half-maximal inhibitory concentration (IC50) of 42 µM. Then `O=C(C/C(=N/NC(=O)c1ccccc1NS(=O)(=O)c1ccc(Cl)cc1)C(F)(F)F)c1cccs1` [Compound 16, 4-chloro-N-(2-(2-(1,1,1-trifluoro-4-oxo-4-(thiophen-2-yl)butan-2-ylidene) hydrazinecarbonyl)phenyl)benzenesulfonamide], with 9.7 µM. To `COc1ccc(O)c(/C=N/NC(=O)c2c(O)ccc3ccccc23)c1` [Compound 66, 2-hydroxy-N′-(2-hydroxy-5-methoxy-benzylidene)-1-naphtho-hydrazide] belongs 7.7 µM; to `COc1cccc(-c2ccc(O)c(/C=N/NC(=O)c3ccccc3O)c2)c1` [Compound 48, 2-hydroxy-N′-((4-hydroxy-3′-methoxybiphenyl-3-yl)methylene) benzohydrazide], 3.7 µM.

Take `Cc1occc1C(=O)N/N=C/c1cc(Br)cc(Br)c1O` [Compound 49, N′-(3,5-dibromo-2-hydroxy-benzylidene)-2-methylfuran-3-carbohydrazide]: the IC50 worked out at 3.8 µM. In the case of `Cc1csc(C(=O)N/N=C(/CC(=O)c2cccs2)C(F)(F)F)c1Cl` [Compound 21, 3-chloro-4-methyl-N′-(1,1,1-trifluoro-4-oxo-4-(thiophen-2-yl)butan-2-ylidene)thiophene-2-carbohydrazide], 12.5 µM corresponded to half-maximal inhibition (IC50). `Cc1ccc(C(=O)C/C(=N/NC(=O)c2sc3cc(F)ccc3c2Cl)C(F)(F)F)s1` [Compound 10, 3-chloro-6-fluoro-N′-(1,1,1-trifluoro-4-(5-methylthiophen-2-yl)-4-oxobutan-2-ylidene)benzo[b]thiophene-2-carbohydrazide]: 8.3 µM corresponded to half-maximal inhibition (IC50). To `O=C(N/N=C/c1c(O)ccc2ccccc12)c1ccccc1NS(=O)(=O)c1ccc(Cl)cc1` [Compound 43, 4-chloro-N-(2-(2-((2-hydroxynaphthalen-1-yl)methylene)hydrazinecarbonyl)phenyl) benzenesulfonamide] belongs 3.2 µM; to `O=C(N/N=C/c1cc(Cl)cc(Cl)c1O)c1ccccc1O` [Compound 69, N′-(3,5-dichloro-2-hydroxy-benzylidene)-2-hydroxy-benzohydrazide], 9.2 µM; to `COc1cccc(/C=N/NC(=O)c2ccccc2O)c1O` [Compound 94, 2-hydroxy-N′-(2-hydroxy-3-methoxybenzylidene)benzohydrazide], 24.9 µM. Then `O=C(N/N=C/c1cccc(F)c1O)c1ccccc1O` [Compound 74, N′-(3-fluoro-2-hydroxy-benzylidene)-2-hydroxy-benzohydrazide], with 10.9 µM; and `O=C(N/N=C/c1cc(F)cc(F)c1O)c1ccccc1O` [Compound 101, N′-(3,5-difluoro-2-hydroxybenzylidene)-2-hydroxybenzohydrazide], with 33.4 µM. Then `CCOC(=O)c1c(C)oc2cc(Br)c(O)c(/C=N/NC(=O)c3ccccc3O)c12` [Compound 77, ethyl 6-bromo-5-hydroxy-4-((2-(2-hydroxybenzoyl)hydrazono)methyl)-2-methyl-benzofuran-3-carboxylate], with 11.6 µM; and `O=C(C/C(=N\NC(=O)c1sc2ccccc2c1Cl)C(F)(F)F)c1ccco1` [Compound 15, 3-chloro-N′-(1,1,1-trifluoro-4-(furan-2-yl)-4-oxobutan-2-ylidene)benzo[b]thiophene-2-carbohydrazide], with 9.5 µM; and `O=C(N/N=C/c1ccc(O)cc1O)c1ccccc1NS(=O)(=O)c1ccc(Cl)cc1` [Compound 62, 4-chloro-N-(2-(2-(2,4-dihydroxy-benzylidene)hydrazine-carbonyl)phenyl)benzene-sulfonamide], with 6.7 µM.

`COc1ccc(O)c(/C=N/NC(=O)c2cc([N+](=O)[O-])ccc2O)c1` [Compound 104, 2-hydroxy-N′-(2-hydroxy-5-methoxybenzylidene)-5-nitrobenzohydrazide] had a 50% inhibitory concentration (IC50) of 35.1 µM. To `O=C(N/N=C/c1c(O)ccc2ccccc12)c1ccc(O)cc1O` [Compound 115, 2,4-dihydroxy-N′-((2-hydroxynaphthalen-1-yl)methylene)benzohydrazide] belongs 47.6 µM. To `COc1cc(Cl)cc(/C=N/NC(=O)c2ccccc2O)c1O` [Compound 91, N′-(5-chloro-2-hydroxy-3-methoxy-benzylidene)-2-hydroxy-benzohydrazide] belongs 22.8 µM; to `Cc1ccc(C(=O)C/C(=N/NC(=O)c2ccccc2O)C(F)(F)F)s1` [Compound 13, 2-hydroxy-N′-(1,1,1-trifluoro-4-(5-methylthiophen-2-yl)-4-oxobutan-2-ylidene) benzohydrazide], 9.1 µM. Molecule `Cc1nnsc1C(=O)N/N=C(/CC(=O)c1cccs1)C(F)(F)F` [Compound 11, 4-methyl-N′-(1,1,1-trifluoro-4-oxo-4-(thiophen-2-yl)butan-2-ylidene)-1,2,3-thiadiazole-5-carbohydrazide] returned an IC50 of 8.4 µM.

`Cc1nnsc1C(=O)N/N=C/c1cc(Cl)ccc1O` [Compound 111, N′-(5-chloro-2-hydroxybenzylidene)-4-methyl-1,2,3-thiadiazole-5-carbohydrazide] showed an IC50 of 42.9 µM. Then `O=C(N/N=C/c1cc(OC(F)(F)F)ccc1O)c1ccccc1O` [Compound 57, 2-hydroxy-N′-(2-hydroxy-5-(trifluoro-methoxy)benzylidene)benzohydrazide], with 6.3 µM. Take `COc1ccc(O)c(/C=N/NC(=O)c2cc3ccccc3cc2O)c1` [Compound 37, 3-hydroxy-N′-(2-hydroxy-5-methoxy-benzylidene)-2-naphtho hydrazide]: half-maximal inhibition (IC50) was put at 1.2 µM. Then `Cc1cc(C(=O)N/N=C/c2c(O)ccc3ccccc23)[nH]n1` [Compound 97, N′-((2-hydroxynaphthalen-1-yl)methylene)-3-methyl-1H-pyrazole-5-carbohydrazide], with 30.6 µM.
